Measured values as given in patent publication US12447141B2, “Liquid tasimelteon formulations and methods of use thereof” (Vanda Pharmaceuticals Inc., priority 2019, dated 2025).
Values after ≈ are worked out from the molar mass of the structure shown.

Legend:
[1] = Solubility and pH of saturated solution; type: physicochemical; settings: water
[2] = tested on: Smith-Magenis Syndrome (SMS); experiment: Study of efficacy of tasimelteon in disorders including SMS, once daily before bedtime; type: in vivo, pediatric patients
Protocol: (§1) One common symptom of SMS is a chronically disrupted sleep pattern, which is found at all ages. In a study to determine the efficacy of tasimelteon in the treatment of disorders, including SMS, oral (20 mg capsule or 4 mg/mL suspension) and intravenous (0.4 mg/mL) formulations were administered once per day before bedtime to pediatric patients 3-17 years old.
Treatment efficacy was assessed by improvements in nighttime sleep (i.e., reduced nighttime activity interrupting the sleep period, improved sleep efficiency, reduced variability in sleep onset, reduced variability in morning awakenings, and/or improved sleep quality), reduced daytime sleepiness, reduced behavioral problems (i.e., reduced aggressive behavior, reduced temper tantrums, reduced hyperactivity, and/or reduced attention deficits).

[3] = Apparent clearance in the pediatric study; type: in vivo, pediatric patients; settings: children with body mass greater than 28 kg
Protocol: as §1

[4] = known in the art, cited from earlier work
[5] = Chemical / storage stability of tasimelteon and its suspensions; type: physicochemical; settings: formation of three degradation products
Protocol: Ascorbic acid preferentially undergoes oxidation, thereby preventing oxidation of tasimelteon, but also imparts a yellow color to the suspension on storage, especially when stored at 40° C./75% RH for >3 months, which is the accelerated storage condition for products stored at room temperature (6 months of satisfactory stability is necessary at 40° C./75% RH in order to justify long-term storage at room temperature/25° C./60% RH). Because of the color change from white/off-white to yellow after 3 months storage at 40° C./75% RH, it is necessary to store the suspension at 5° C., for which the accelerated storage condition is 25° C./60% RH and up to 6 months of satisfactory stability data at this storage condition are available (i.e., color change is from white/off-white to slightly yellow).
Short-term stability studies can be undertaken under storage conditions at (1) 5±3° C., (2) 25±2° C. (at 60±5% relative humidity), and 40±2° C. (at 75±5% relative humidity) for one to three months. Under such conditions, total impurities as determined by HPLC for pharmaceutically acceptable compositions are, for example, not more than 2.0 percent by weight or not more than 0.5 percent by weight with respect to known impurities, and not more than 0.2 percent by weight with respect to unspecified impurities.

`OC[C@@H](O)[C@@H](O)[C@H](O)[C@H](O)CO` [mannitol] showed a solubility [1] of about 200 mg/mL (≈ 1100 mM).

In the case of `CCC(=O)NC[C@@H]1C[C@H]1c1cccc2c1CCO2` [tasimelteon, trans-N-[[2-(2,3-dihydrobenzofuran-4-yl)cycloprop-1-yl]methyl]propanamide], the consistently effective dose ([2]; patients with body mass greater than 28 kg) is reported as 20 mg, the consistently effective dose ([2]; patients with body mass of 28 kg or less) is reported as 0.7 mg/kg and the apparent clearance [3] is reported as “constant and similar to that of adults”. For the same compound, the solubility [1] was about 1 mg/mL (≈ 4.08 mM), the “solubility in organic solvents” value ([4]; 95% ethanol, methanol, acetonitrile, ethyl acetate, isopropanol, polyethylene glycols (PEG-300 and PEG-400)) was “highly soluble” and the “effect of pH on aqueous solubility” value [4] was “substantially unaffected by pH”. For the same compound, the “native pH of a saturated solution in water” value ([4]; saturated solution in water) was 8.5, the solubility in water ([4]; water) was “poorly soluble” and the oxidative degradation [5] was “susceptible to oxidative degradation”.
